# Calls of active or inactive are those of the source. How the calls were made is not given here.
# Test system: rodent carcinogenicity bioassays, tumor incidence
# Assay: CCRIS carcinogenicity studies
# Conditions: Dose: 0
# Outline: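 Archive of carcinogenicity, mutagenicity, tumor promotion and tumor inhibition results drawn from journals, NCI reports and other sources, expert-reviewed; covers 1985-2011 and is no longer updated.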
structure (smiles),measurement,setting,value
O=[N+]([O-])c1cc2c3ccccc3ccc2c2ccccc12,carcinogen call,"Species: MOUSE, Strain/Sex: B6C3F1/MALE, Route: INTRAPERITONEAL, 400 NMOL IN 35 µL DMSO ON DAYS 1 (1/7 TOTAL DOSE), 8 (2/7 TOTAL DOSE), AND 15 (4/7 TOTAL DOSE) AFTER BIRTH (STUDY DUR, Tumor Site: Type of Lesion: LIVER: ADENOMA OR CARCINOMA, LUNG: TUMOR",active; positive
same,carcinogen call,"Species: MOUSE, Strain/Sex: BLU:HA/FEMALE, Route: INTRAPERITONEAL, 38.5, 189 UG (TOTAL DOSE) GIVEN TO NEWBORN MICE IN 3 DOSES OF 1/7, 2/7 AND 4/7 OF THE TOTAL ON DAYS 1, 8 AND 15 RESPE, 38.5, 189 UG (TOTAL DOSE) GIVEN TO NEWBORN MICE IN 3 DOSES OF 1/7, 2/7 AND 4/7 OF THE TOTAL ON DAYS 1, 8 AND 15 RESPE, Tumor Site: Type of Lesion: LUNG: TUMORS",active; positive
same,carcinogen call,"Species: MOUSE, Strain/Sex: BLU:HA/MALE, Route: INTRAPERITONEAL, 38.5, 189 UG (TOTAL DOSE) GIVEN TO NEWBORN MICE IN 3 DOSES OF 1/7, 2/7 AND 4/7 OF THE TOTAL ON DAYS 1, 8 AND 15 RESPE, 38.5, 189 UG (TOTAL DOSE) GIVEN TO NEWBORN MICE IN 3 DOSES OF 1/7, 2/7 AND 4/7 OF THE TOTAL ON DAYS 1, 8 AND 15 RESPE, Tumor Site: Type of Lesion: LUNG: TUMORS",active; positive
same,carcinogen call,"Species: MOUSE, Strain/Sex: ICR/FEMALE, Route: INTRAPERITONEAL, 7.5, 15, 30 µL OF A 26.7 NMOL/UL DMSO SOLUTION ON 1,8, AND 15 D OF AGE RESPECTIVELY (TOTAL DOSE: 0; 1.4 UMOL) (STUDY, 7.5, 15, 30 µL OF A 26.7 NMOL/UL DMSO SOLUTION ON 1,8, AND 15 D OF AGE RESPECTIVELY (TOTAL DOSE: 0; 1.4 UMOL) (STUDY, Tumor Site: Type of Lesion: LUNG: ADENOMA",active; positive
same,carcinogen call,"Species: MOUSE, Strain/Sex: ICR/FEMALE, Route: INTRAPERITONEAL, 7.7 UG TOTAL DOSE (1.1 UG/5 µL, 2.2 UG/10 µL, 4.4 UG/20 µL DMSO ON DAYS 1, 8 AND 15) ADMINISTERED TO NEWBORN ANIMALS, Tumor Site: Type of Lesion: LUNG: ADENOMA, ADENOCARCINOMA",active; positive
same,carcinogen call,"Species: MOUSE, Strain/Sex: ICR/FEMALE, Route: INTRAPERITONEAL, 100 NMOL (TOTAL DOSE) ADMINISTERED IN 3 SUBDOSES OF 1/7, 2/7, AND 4/7 ON DAYS 1, 8 AND 15 OF LIFE, RESPECTIVELY (STUD, Tumor Site: Type of Lesion: LUNG: TUMORS",active; positive
same,carcinogen call,"Species: MOUSE, Strain/Sex: ICR/MALE, Route: INTRAPERITONEAL, 7.5, 15, 30 µL OF A 26.7 NMOL/UL DMSO SOLUTION ON 1,8, AND 15 D OF AGE RESPECTIVELY (TOTAL DOSE: 0; 1.4 UMOL) (STUDY, 7.5, 15, 30 µL OF A 26.7 NMOL/UL DMSO SOLUTION ON 1,8, AND 15 D OF AGE RESPECTIVELY (TOTAL DOSE: 0; 1.4 UMOL) (STUDY, Tumor Site: Type of Lesion: LUNG: ADENOMA",active; positive
same,carcinogen call,"Species: MOUSE, Strain/Sex: ICR/MALE, Route: INTRAPERITONEAL, 7.7 UG TOTAL DOSE (1.1 UG/5 µL, 2.2 UG/10 µL, 4.4 UG/20 µL DMSO ON DAYS 1, 8 AND 15) ADMINISTERED TO NEWBORN ANIMALS, Tumor Site: Type of Lesion: LUNG: ADENOMA, ADENOCARCINOMA",active; positive
same,carcinogen call,"Species: MOUSE, Strain/Sex: ICR/MALE, Route: INTRAPERITONEAL, 100 NMOL (TOTAL DOSE) ADMINISTERED IN 3 SUBDOSES OF 1/7, 2/7, AND 4/7 ON DAYS 1, 8 AND 15 OF LIFE, RESPECTIVELY (STUD, Tumor Site: Type of Lesion: LUNG: TUMORS, LIVER: TUMORS",active; positive
same,carcinogen call,"Species: MOUSE, Strain/Sex: SWISS/FEMALE, Route: INTRAPERITONEAL, 100, 700 NMOL (TOTAL DOSE) 1/7, 2/7 AND 4/7 ADMINISTERED ON DAYS 1, 8 AND 15 OF LIFE RESPECTIVELY (STUDY DURATION: 32, 100, 700 NMOL (TOTAL DOSE) 1/7, 2/7 AND 4/7 ADMINISTERED ON DAYS 1, 8 AND 15 OF LIFE RESPECTIVELY (STUDY DURATION: 32, Tumor Site: Type of Lesion: LUNG: TUMOR",active; positive
same,carcinogen call,"Species: MOUSE, Strain/Sex: SWISS/FEMALE, Route: INTRAPERITONEAL, 100 NMOL (TOTAL DOSE) ADMINISTERED 1/7, 2/7 AND 4/7 ON DAY 1, 8 AND 15 RESPECTIVELY (STUDY DURATION: 32 WK), Tumor Site: Type of Lesion: LUNG: TUMOR",active; positive
same,carcinogen call,"Species: MOUSE, Strain/Sex: SWISS/FEMALE, Route: INTRAPERITONEAL, 100 NMOL ON DAY 1 OF LIFE (STUDY DURATION: 32 WK), Tumor Site: Type of Lesion: LUNG: TUMOR, LIVER: TUMOR",active; positive
same,carcinogen call,"Species: MOUSE, Strain/Sex: SWISS/MALE, Route: INTRAPERITONEAL, 100, 700 NMOL (TOTAL DOSE) 1/7, 2/7 AND 4/7 ADMINISTERED ON DAYS 1, 8 AND 15 OF LIFE RESPECTIVELY (STUDY DURATION: 32, 100, 700 NMOL (TOTAL DOSE) 1/7, 2/7 AND 4/7 ADMINISTERED ON DAYS 1, 8 AND 15 OF LIFE RESPECTIVELY (STUDY DURATION: 32, Tumor Site: Type of Lesion: LUNG: TUMOR, LIVER: TUMOR",active; positive
same,carcinogen call,"Species: MOUSE, Strain/Sex: SWISS/MALE, Route: INTRAPERITONEAL, 100 NMOL (TOTAL DOSE) ADMINISTERED 1/7, 2/7 AND 4/7 ON DAY 1, 8 AND 15 RESPECTIVELY (STUDY DURATION: 32 WK), Tumor Site: Type of Lesion: LIVER: TUMOR, LUNG: TUMOR",active; positive
same,carcinogen call,"Species: MOUSE, Strain/Sex: SWISS/MALE, Route: INTRAPERITONEAL, 100 NMOL ON DAY 1 OF LIFE (STUDY DURATION: 32 WK), Tumor Site: Type of Lesion: LUNG: TUMOR, LIVER: TUMOR",active; positive
same,carcinogen call,"Species: RAT, Strain/Sex: CD-1/FEMALE, Route: INTRAPERITONEAL, 15, 30, 60, 150, 300 µL OF A 26.7 NMOL/UL SOLUTION ON 1, 8, 15, 22, AND 29 D OF AGE RESPECTIVELY (TOTAL DOSE: 0, 14.8, 15, 30, 60, 150, 300 µL OF A 26.7 NMOL/UL SOLUTION ON 1, 8, 15, 22, AND 29 D OF AGE RESPECTIVELY (TOTAL DOSE: 0, 14.8, Tumor Site: Type of Lesion: COLON: ADENOCARCINOMA, ADENOMA/DYSPLASIA",active; positive
same,carcinogen call,"Species: RAT, Strain/Sex: CD-1/MALE, Route: INTRAPERITONEAL, 15, 30, 60, 150, 300 µL OF A 26.7 NMOL/UL DMSO SOLUTION ON 1, 8, 15, 22 AND 29 D OF AGE RESPECTIVELY (TOTAL DOSE: 0;, 15, 30, 60, 150, 300 µL OF A 26.7 NMOL/UL DMSO SOLUTION ON 1, 8, 15, 22 AND 29 D OF AGE RESPECTIVELY (TOTAL DOSE: 0;, Tumor Site: Type of Lesion: COLON: ADENOCARCINOMA, ADENOMA",active; positive
same,carcinogen call,"Species: RAT, Strain/Sex: STRAIN-CD/ FEMALE, Route: INJECTION, 2.04 UMOL IN 0.1 ML DMSO INJECTED BENEATH EACH OF THREE LEFT THORACIC NIPPLES THEN ON THE NEXT DAY BENEATH EACH THE T, Tumor Site: Type of Lesion: MAMMARY GLAND: TUMOR",active; positive
same,carcinogen call,"Species: RAT, Strain/Sex: STRAIN-CD/FEMALE, Route: INJECTION, 2.04 UMOL IN 100 µL DMSO INJECTED INTO 3 THORACIC MAMMARY GLANDS ON DAY 1 AND INTO 3 INQUINAL MAMMARY GLANDS ON DAY 2, Tumor Site: Type of Lesion: MAMMARY GLAND: FIBROADENOMA, ADENOCARCINOMA, SPINDLE CELL SARCOMA",active; positive
COCc1cnc(C2=NC(C)(C(C)C)C(=O)N2)c(C(=O)O)c1 (stereo not drawn),carcinogen call,"Species: Mouse, Strain/Sex: CD-1/Female (55/Group), Route: Oral, 96, 664, 1348 mg/kg/day of 97.1% imazamox in diet for at least 18 mo, study duration at least 18 mo, 96, 664, 1348 mg/kg/day of 97.1% imazamox in diet for at least 18 mo, study duration at least 18 mo",inactive; negative
same,carcinogen call,"Species: Mouse, Strain/Sex: CD-1/Male (55/Group), Route: Oral, 73, 535, 1053 mg/kg/day of 97.1% imazamox in diet for at least 18 mo, study duration at least 18 mo, 73, 535, 1053 mg/kg/day of 97.1% imazamox in diet for at least 18 mo, study duration at least 18 mo",inactive; negative
same,carcinogen call,"Species: Rat, Strain/Sex: Sprague-Dawley/Female (65/Group), Route: Oral, 63, 626, 1284 mg/kg/day of 97.1% imazamox in diet for 24 mo, study duration 24 mo, 63, 626, 1284 mg/kg/day of 97.1% imazamox in diet for 24 mo, study duration 24 mo",inactive; negative
same,carcinogen call,"Species: Rat, Strain/Sex: Sprague-Dawley/Male (65/Group), Route: Oral, 52, 528, 1068 mg/kg/day of 97.1% imazamox in diet for 24 mo, study duration 24 mo, 52, 528, 1068 mg/kg/day of 97.1% imazamox in diet for 24 mo, study duration 24 mo",inactive; negative

# — PubChem BioAssay AID1259411 (Chemical Carcinogenesis Research Information System (CCRIS), 2018)
